What was measured:
Format in all cases: cell-based, human
involucrin (IVL) = assay: IVL expression in HPEK treated with differentiation agents (sqRT-PCR); details: 100 nM, 5 d, normalized to GAPDH
Procedure: FIG. 1: Induction of miR-184 during Ca^2+-dependent HPEK differentiation. (a) HPEKs grown to confluence were treated with high (1.5 mM) Ca^2+, 100 nM 1,25(OH)D3, 100 nM PMA or dimethyl sulfoxide (DMSO) vehicle for 1 or 5 days (d). (b) Upregulation of the HPEK differentiation marker involucrin (IVL) during 5 d exposure to 1.5 mM Ca^2+, 100 nM 1,25(OH)D3 or 100 nM PMA. Data shown represent means +SEM from 3 independent experiments. Expression was normalized to SNORD72 for miR-184 and GAPDH for IVL. Values are presented relative to 0.07 mM Ca^2+ or DMSO-treated controls;
Human progenitor epidermal keratinocytes (HPEK) were isolated from human foreskin or purchased from CellnTec (Bern, Switzerland). […]
Total RNA was isolated from cells using the AllPrep DNA/RNA/miRNA Universal kit (Qiagen, Manchester, UK). RNA concentration was determined using a NanoDrop™ 2000c. […] PCR amplifications were performed with Quantifast SYBR Green and QuantiTect miRNA/universal primers or RT^2 mRNA primer assays, all from Qiagen. […] Relative expression of miRNA and mRNA determined using the 2^−ΔΔCT relative quantification method (Livak and Schmittgen, 2001).
(§1) Expression of miR-184 in HPEK was evaluated and maintained in parallel cultures under low (0.07 mM) to sustain proliferation or high (1.5 mM) extracellular Ca^2+ to promote differentiation.

miR-184 [1] = assay: Induction of miR-184 in HPEK by differentiation agents (sqRT-PCR); details: 1 or 5 days
Procedure: FIG. 1: Induction of miR-184 during Ca^2+-dependent HPEK differentiation. […] Data shown represent means +SEM from 3 independent experiments. Expression was normalized to SNORD72 for miR-184 and GAPDH for IVL. Values are presented relative to 0.07 mM Ca^2+ or DMSO-treated controls;
Human progenitor epidermal keratinocytes (HPEK) were isolated from human foreskin or purchased from CellnTec (Bern, Switzerland). For isolation, tissues were washed with phosphate-buffered saline, trimmed of any subcutaneous fat, connective tissues and blood vessels before digestion with 20 mg/ml dispase (Sigma) at 4° C. overnight with further digestion for 1 hour at room temperature. Thereafter, the epidermis was separated and incubated in 0.5% TrpLE (Thermofisher scientific, Cheshire, UK) for 5 min at 37° C., 5% CO2. Keratinocytes were centrifuged (1200 rpm for 5 min) and re-suspended in CnT-Prime (CellnTec) supplemented with 1% penicillin/streptomycin/amphotericin B (PSA) and IsoBoost supplement CnT-ISO (CellnTec) to enhance isolation efficiency. Culture medium was changed every 2-3 days until cells reached 80% confluence with PSA exclusion from the culture medium after the first passage. Keratinocytes were sub-cultured using CnT-Accutase (CellnTec) and re-cultured at 4×10^3 cells per cm^2. For differentiation, keratinocytes were at 3×10^5/well of a 6-well plate in CnT-Prime and allowed to reach confluence before adjusting the medium to 1.5 mM calcium using CaCl2.
(§2) Total RNA was isolated from cells using the AllPrep DNA/RNA/miRNA Universal kit (Qiagen, Manchester, UK). RNA concentration was determined using a NanoDrop™ 2000c. Complementary DNA (cDNA) was synthesised from 400 ng of RNA using the miScript II RT kit (Qiagen) with HiFlex buffer. PCR amplifications were performed with Quantifast SYBR Green and QuantiTect miRNA/universal primers or RT^2 mRNA primer assays, all from Qiagen. Thermocycling was performed on a Rotor-Gene® as follows: 95° C. for 15 min, followed by 40 cycles of 94° C. for 15 s, 55° C. for 30 s and 70° C. for 30 s. Relative expression of miRNA and mRNA determined using the 2^−ΔΔCT relative quantification method (Livak and Schmittgen, 2001).
as §1

ORAI1 = ORAI1 expression in HPEK; details: data not shown
Text: To determine whether Ca^2+-dependent induction of miR-184 was associated with SOCE, HPEK were maintained in high Ca^2+ for 5 days in the presence of the SOCE blocker gadolinium (III) Gd^3+ or the pharmacologic ORAI1 inhibitor BTP2. Alternatively, ORAI1 expression was ablated using short-interfering RNA (siRNA) that was transferred into the cells using nucleofection 1 d prior to Ca^2+ elevation.

UCA1 = assay: LncRNA UCA1 induction in scratched HPEK monolayers; details: 5 days
Procedure: (§3) FIG. 6: Induction of miR-184 in scratched monolayers. Confluent HPEK monolayers were scratched and cells harvested after 5 days in low (0.07 mM) or high (1.5 mM) Ca^2+ media as indicated. The SOCE blockers Gd^3+ and BTP2 and were added 1 h after scratching and refreshed after day 2. (a-d) miR-184 expression normalized to SNORD72. (c-d) LncRNA UCA1 expression normalised to GAPDH; and
as §2
The long non-coding RNA UCA1 (urothelial carcinoma associated 1) has been identified as a competing endogenous RNA (ceRNA) with four predicted miR-184-binding sites (Zhou et al., 2017). The expression of UCA1 in the HPEK was therefore examined. […]

miR-184 [2] = assay: miR-184 induction in scratched HPEK monolayers; details: low Ca2+ (0.07 mM), 5 days
Procedure: as §3
Total RNA was isolated from cells using the AllPrep DNA/RNA/miRNA Universal kit (Qiagen, Manchester, UK). RNA concentration was determined using a NanoDrop™ 2000c. Complementary DNA (cDNA) was synthesised from 400 ng of RNA using the miScript II RT kit (Qiagen) with HiFlex buffer. PCR amplifications were performed with Quantifast SYBR Green and QuantiTect miRNA/universal primers or RT^2 mRNA primer assays, all from Qiagen. […] Relative expression of miRNA and mRNA determined using the 2^−ΔΔCT relative quantification method (Livak and Schmittgen, 2001).
The inventors maintained the HPEK in low Ca^2+ (0.07 mM) medium and allowed them to approach confluence in 6-well plates prior to wounding. Cells were harvested 5 days later and miR-184 expression assessed as described above. […] In contrast, when extracellular Ca^2+ was raised to 1.5 mM to 5 days to evoke HPEK differentiation, only a relatively modest 10-fold rise in miR-184 expression was detected (FIG. 6d). […]

| Molecule | IVL expression (involucrin (IVL)) | effect on miR-184 expression (miR-184 [1]; 100 nM, vs DMSO) | effect on ORAI1 expression (ORAI1) | reduction of UCA1 induction (UCA1) | effect on scratch-evoked induction of miR-184 (miR-184 [2]) | other results |
| --- | --- | --- | --- | --- | --- | --- |
| C=C1/C(=C\C=C2/CCC[C@]3(C)[C@@H]([C@H](C)CCCC(C)(C)O)CC[C@@H]23)C[C@@H](O)C[C@@H]1O [1, 25-(OH)2D3, 1, 25-dihydroxyvitamin D3] | evoked robust IVL expression | did not promote miR-184 expression |  |  |  | effect on miR-184 expression (miR-184 [1]; 100 nM, vs DMSO, listed as 1, 25-dihydroxyvitamin D3): neither phorbol ester nor 1, 25-dihydroxyvitamin D3 had any effect |
| Cc1nnsc1C(=O)Nc1ccc(-n2nc(C(F)(F)F)cc2C(F)(F)F)cc1 [BTP2] |  |  | little effect on ORAI1 expression | around 50% | abolished the induction of miR-184 |  |
| [Cl][Gd]([Cl])[Cl] [Gd^3+, Gadolinium(III) chloride] |  |  | little effect on ORAI1 expression | around 50% | abolished the induction of miR-184 |  |
| CCCCCCCCCCCCCC(=O)O[C@@H]1[C@@H](C)[C@@]2(O)[C@@H](C=C(CO)C[C@]3(O)C(=O)C(C)=C[C@@H]23)[C@@H]2C(C)(C)[C@]12OC(C)=O [PMA, phorbol 12-myristate 13-acetate] | evoked robust IVL expression | did not promote miR-184 expression |  |  |  | effect on miR-184 expression (miR-184 [1]; 100 nM, vs DMSO, listed as phorbol ester): neither phorbol ester nor 1, 25-dihydroxyvitamin D3 had any effect |
| IFNγ: Interferon gamma, reported to trigger keratinocyte differentiation |  |  |  |  |  | effect on miR-184 expression (miR-184 [1]; 10 ng/ml, data not shown): no induction of miR-184 was observed |

From patent US20210186934A1, “COMPOSITIONS AND USES THEREOF” (LIVERPOOL JOHN MOORES UNIVERSITY, priority 2018, published 2021)
